Measured values from ChEMBL document CHEMBL1121773, “Interaction of aromatic dyes with the coenzyme A binding site of choline acetyltransferase” (J Med Chem, 1981).

Test system: Choline O-acetyltransferase (squid)
Assay: Compound was tested for inhibition of choline acetyltransferase isolated from squid head ganglia; No inhibition at limit of solubility (4.4*10e-3 M)

O=S(=O)(O)c1ccc2ccccc2c1Nc1ccccc1
Ki: No inhibition at limit of solubility
